Data on 28 compounds can be found in patent US7473790B2 (Pfizer Inc., priority 2003, dated 2009).

This test deals with T1, HCV polymerase (Hepatitis C virus genotype 1b, UniProt P26663).
T1 construct: 2.5 pmoles (0.15 μg) HCV polymerase protein in a final volume of 75 μL
Nature of the test: HCV polymerase primer/template-directed transcription assay (32P-GTP incorporation, filter binding). Format: biochemical. To be noted: for IC50: recombinant HCV polymerase, 30 minutes at 30° C., concentration giving 50% inhibition of polymerase-directed transcription, read-out: IC50. Summed up: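 IC50s come from triplicate cpm, refit with an enzyme-concentration (30 nM) correction when under 200 nM. Reactions ran 30 min at 30° C in Tris pH 7.2 with MgCl2, 1 μM GTP spiked with α-32P-GTP, biotin-dG12 primer and poly(rC)300 template, with 1% DMSO. Incorporated label was collected on DE filtermats and counted.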

T1 sequence (P26663 2420-3010): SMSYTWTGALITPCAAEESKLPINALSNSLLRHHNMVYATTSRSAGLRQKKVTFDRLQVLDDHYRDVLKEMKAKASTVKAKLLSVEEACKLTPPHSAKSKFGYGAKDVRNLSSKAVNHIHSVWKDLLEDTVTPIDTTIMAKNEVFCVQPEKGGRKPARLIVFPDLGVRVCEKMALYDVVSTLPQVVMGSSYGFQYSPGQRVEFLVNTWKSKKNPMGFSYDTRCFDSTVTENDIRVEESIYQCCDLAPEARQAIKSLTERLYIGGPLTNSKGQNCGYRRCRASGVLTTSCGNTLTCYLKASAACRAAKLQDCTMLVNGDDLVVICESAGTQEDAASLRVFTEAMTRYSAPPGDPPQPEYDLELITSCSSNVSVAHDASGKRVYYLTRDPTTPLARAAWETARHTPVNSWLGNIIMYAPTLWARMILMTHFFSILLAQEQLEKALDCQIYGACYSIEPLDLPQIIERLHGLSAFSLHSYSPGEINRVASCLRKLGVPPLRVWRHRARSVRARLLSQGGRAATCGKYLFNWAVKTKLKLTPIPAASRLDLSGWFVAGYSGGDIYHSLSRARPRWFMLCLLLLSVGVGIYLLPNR

Take `CC(C)(C#N)c1ccc(CCC2(C3CCCC3)CC(O)=C(Cc3cn[nH]c3)C(=O)O2)cc1F` (stereo not shown) [B(93), 2-(4-{2-[2-cyclopentyl-4-hydroxy-6-oxo-5-(1H-pyrazol-4-ylmethyl)-3,6-dihydro-2H-pyran-2-yl]ethyl}-2-fluorophenyl)-2-methylpropanenitrile]: the IC50 was found to be 90 nM.
For the compound `CCc1ccc(O)c(CCC2(C3CCCC3)CC(O)=C(Cc3nc4ncccn4n3)C(=O)O2)c1` (stereo not shown) [A(176), 6-Cyclopentyl-6-[2-(5-ethyl-2-hydroxy-phenyl)-ethyl]-4-hydroxy-3-[1,2,4]triazolo[1,5-a]pyrimidin-2-ylmethyl-5,6-dihydro-pyran-2-one], the IC50 was found to be 6 nM.
Turning to `CCc1cc(CCC2(C3CCCC3)CC(O)=C(Cc3nc4ncccn4n3)C(=O)O2)c(OC)cc1O` (single isomer, unassigned) [A(209), 6-cyclopentyl-6-[2-(5-ethyl-4-hydroxy-2-methoxyphenyl)ethyl]-4-hydroxy-3-([1,2,4]triazolo[1,5-a]pyrimidin-2-ylmethyl)-5,6-dihydro-2H-pyran-2-one], the IC50 was 50 nM.
Still for that read-out and setting: the figure for `CCc1ccc(O)c(CCC2(C3CCCC3)CC(O)=C(Cc3nc4ncc(Cl)cn4n3)C(=O)O2)c1` (stereo not shown) [A(170), 3-(6-Chloro-[1,2,4]triazolo[1,5-a]pyrimidin-2-ylmethyl)-6-cyclopentyl-6-[2-(5-ethyl-2-hydroxy-phenyl)-ethyl]-4-hydroxy-5,6-dihydro-pyran-2-one] is 10 nM.
Turning to `CC1(c2ccc(CCC3(C4CCCC4)CC(=O)CC(=O)O3)cc2Cl)OCCO1` (stereo not shown) [B(123), 6-{2-[3-Chloro-4-(2-methyl-[1,3]dioxolan-2-yl)-phenyl]-ethyl}-6-cyclopentyl-dihydro-pyran-2,4-dione], the half-inhibitory concentration (IC50) was 580 nM.
Regarding `Cc1cc(C)n2nc(CC3C(=O)CC(CCc4ccc(C(C)C)cc4)(C4CCCC4)OC3=O)nc2n1` (stereo not shown) [B(50), 6-cyclopentyl-3-[(5,7-dimethyl[1,2,4]triazolo[1,5-a]pyrimidin-2-yl)methyl]-6-[2-(4-isopropylphenyl)ethyl]dihydro-2H-pyran-2,4(3H)-dione], the IC50 turned out to be 90 nM.
With `COc1cccc(CC2=C(O)CC(CCc3ccc(C(C)(C)C#N)c(F)c3)(C3CCCC3)OC2=O)c1` (stereo not shown) [A(100), 2-(4-{2-[2-cyclopentyl-4-hydroxy-5-(3-methoxybenzyl)-6-oxo-3,6-dihydro-2H-pyran-2-yl]ethyl}-2-fluorophenyl)-2-methylpropanenitrile], the IC50 turned out to be 88 nM.
Regarding `CCc1cc(CCC2(C3CCCC3)CC(O)=C(Cc3nc4nc(C)cc(C)n4n3)C(=O)O2)ccc1Cl` (stereo not shown) [B(113), 6-[2-(4-Chloro-3-ethyl-phenyl)-ethyl]-6-cyclopentyl-3-(5,7-dimethyl-[1,2,4]triazolo[1,5-a]pyrimidin-2-ylmethyl)-4-hydroxy-5,6-dihydro-pyran-2-one], the IC50 turned out to be 19 nM.
Turning to `CN(c1ccc(CCC2(C3CCCC3)CC(=O)CC(=O)O2)cc1F)S(C)(=O)=O` (stereo not shown) [A(132), 6-cyclopentyl-6-[2-(3-fluoro-4-{methyl[methyl(dimethylene)-6-sulfanyl]amino}phenyl)ethyl]dihydro-2H-pyran-2,4(3H)-dione], the IC50 worked out at 13000 nM.
As to `C[C@@H](O)c1ccc(CCC2(C3CCCC3)CC(=O)CC(=O)O2)cc1F` (stereo partly shown) [B(115), 6-Cyclopentyl-6-{2-[3-fluoro-4-(1-hydroxy-ethyl)-phenyl]-ethyl}-dihydro-pyran-2,4-dione], the IC50 stood at 3300 nM.
For the compound `COc1ccc(CCC2(C3CCCC3)CC(O)=C(Cc3nc4nc(C)cc(C)n4n3)C(=O)O2)c(OC)c1` (stereo not shown) [B(117), 6-Cyclopentyl-6-[2-(2,4-dimethoxy-phenyl)-ethyl]-3-(5,7-dimethyl-[1,2,4]triazolo[1,5-a]pyrimidin-2-ylmethyl)-4-hydroxy-5,6-dihydro-pyran-2-one], the IC50 is 111 nM.
As to `N#CC1(c2ccc(CCC3(C4CCCC4)CC(O)=C(Cc4nc5ncccn5n4)C(=O)O3)cc2F)CCC1` (stereo not shown) [A(238), 1-{4-[2-(2-Cyclopentyl-4-hydroxy-6-oxo-5-[1,2,4]triazolo[1,5-a]pyrimidin-2-ylmethyl-3,6-dihydro-2H-pyran-2-yl)-ethyl]-2-fluoro-phenyl}-cyclobutanecarbonitrile], the IC50 was 10 nM.
For the compound `CCc1cc(CCC2(C3CCCC3)CC(O)=C(Cc3nc4nc(C)cc(C)n4n3)C(=O)O2)cc(F)c1O` (stereo not shown) [A(123), 6-Cyclopentyl-3-(5,7-dimethyl-[1,2,4]triazolo[1,5-a]pyrimidin-2-ylmethyl)-6-[2-(3-ethyl-5-fluoro-4-hydroxy-phenyl)-ethyl]-4-hydroxy-5,6-dihydro-pyran-2-one], the IC50 was determined as 12 nM.
The same measure, in the same setting: next, `O=C1CC(=O)OC(CCc2cc(F)cc(F)c2)(C2CCCC2)C1` (stereo not shown) [A(122), 6-Cyclopentyl-6-[2-(3,5-difluoro-phenyl)-ethyl]-dihydro-pyran-2,4-dione]: 31000 nM; `COc1cc(OC)c(CCC2(C3CCCC3)CC(O)=C(Cc3c[nH]c(C)n3)C(=O)O2)cc1Cl` (stereo not shown) [B(35), 6-[2-(5-Chloro-2,4-dimethoxy-phenyl)-ethyl]-6-cyclopentyl-4-hydroxy-3-(2-methyl-1H-imidazol-4-ylmethyl)-5,6-dihydro-pyran-2-one]: 70 nM; `CC1(c2ccc(CCC3(C4CCCC4)CC(=O)CC(=O)O3)cc2Cl)CC(=O)CC(=O)O1` (stereo not shown) [A(27), 6-[2-(3-Chloro-4-(6-Methyl-dihydro-pyran-2,4-dione)-phenyl)-ethyl]-6-cyclopentyl-dihydro-pyran-2,4-dione]: 125 nM.
With `Cc1cc(C)n2nc(CC3=C(O)CC(CCc4ccc(O)c(C(C)C)c4)(C4CCCC4)OC3=O)nc2n1` (stereo not shown) [B(94), 6-Cyclopentyl-3-(5,7-dimethyl-[1,2,4]triazolo[1,5-a]pyrimidin-2-ylmethyl)-4-hydroxy-6-[2-(4-hydroxy-3-isopropyl-phenyl)-ethyl]-5,6-dihydro-pyran-2-one], the percent inhibition (compound concentration not given) was determined as 1%.
As for `Cc1cc(C)n2nc(CC3=C(O)CC(CCc4ccc(OC(C)C)c(Cl)c4)(C4CCCC4)OC3=O)nc2n1` (stereo not shown) [B(31), 6-[2-(3-Chloro-4-isopropoxy-phenyl)-ethyl]-6-cyclopentyl-3-(5,7-dimethyl-[1,2,4]triazolo[1,5-a]pyrimidin-2-ylmethyl)-4-hydroxy-5,6-dihydro-pyran-2-one], the IC50 is 3 nM.
On the same count and under the same terms, the figure for `Cc1cc(C)n2nc(CC3=C(O)CC(CCc4ccc(C(C)(C)O)c(F)c4)(C4CCCC4)OC3=O)nc2n1` (single isomer, unassigned; enantiomer a) [A(218), 6-cyclopentyl-3-[(5,7-dimethyl[1,2,4]triazolo[1,5-a]pyrimidin-2-yl)methyl]-6-{2-[3-fluoro-4-(1-hydroxy-1-methylethyl)phenyl]ethyl}-4-hydroxy-5,6-dihydro-2H-pyran-2-one (enantiomer A)] is 61 nM; for `CCc1cnc2nc(CC3=C(O)CC(CCc4cc(F)c(C(C)(C)C#N)c(F)c4)(C4CCCC4)OC3=O)nn2c1` (stereo not shown) [A(252), 2-(4-{2-[2-Cyclopentyl-5-(6-ethyl-[1,2,4]triazolo[1,5-a]pyrimidin-2-ylmethyl)-4-hydroxy-6-oxo-3,6-dihydro-2H-pyran-2-yl]-ethyl}-2,6-difluoro-phenyl)-2-methyl-propionitrile] it is 10 nM; for `Cc1cc(C#CCCC2(C3CCCC3)CC(=O)CC(=O)O2)c(C)cc1O` (stereo not shown) [F(1), 6-Cyclopentyl-6-[4-(4-hydroxy-2,5-dimethyl-phenyl)-but-3-ynyl]-dihydro-pyran-2,4-dione] it is 7200 nM.
For `COc1ccc(CCC2(C3CCCC3)CC(O)=C(Sc3nc4cncnc4[nH]3)C(=O)O2)cc1Cl` (stereo not shown) [C(65), 6-[2-(3-chloro-4-methoxyphenyl)ethyl]-6-cyclopentyl-4-hydroxy-3-(9H-purin-8-ylthio)-5,6-dihydro-2H-pyran-2-one], the IC50 came out at 54 nM.
Take `COc1cccc(-c2nnc(SC3=C(O)CC(CCc4cc(Cl)c(OC)cc4OC)(C4CCCC4)OC3=O)n2C)c1` (stereo not shown) [C(79), 6-[2-(5-chloro-2,4-dimethoxyphenyl)ethyl]-6-cyclopentyl-4-hydroxy-3-{[5-(3-methoxyphenyl)-4-methyl-4H-1,2,4-triazol-3-yl]thio}-5,6-dihydro-2H-pyran-2-one]: the IC50 was 63 nM.
On to `O=C1CC(=O)OC(CCc2ccc(OC3CCCCO3)cc2)(C2CCCC2)C1` (stereo not shown) [A(48), 6-Cyclopentyl-6-{2-[4-(tetrahydro-pyran-2-yloxy)-phenyl]-ethyl}-dihydro-pyran-2,4-dione], for which the 50% inhibitory concentration (IC50) turned out to be 33200 nM.
`CCc1cc(CCC2(C3CCCC3)CC(O)=C(Cc3nc4nc(C)cc(C)n4n3)C(=O)O2)c(O)cc1OC` (stereo not shown) [A(187), 6-Cyclopentyl-3-(5,7-dimethyl-[1,2,4]triazolo[1,5-a]pyrimidin-2-ylmethyl)-6-[2-(5-ethyl-2-hydroxy-4-methoxy-phenyl)-ethyl]-4-hydroxy-5,6-dihydro-pyran-2-one]: the IC50 was found to be 4 nM.
The same measure, in the same setting: the figure for `COc1ccc(CCC2(C3CCCC3)CC(O)=C(Sc3nncn3-c3ccccc3)C(=O)O2)cc1Cl` (stereo not shown) [C(37), 6-[2-(3-chloro-4-methoxyphenyl)ethyl]-6-cyclopentyl-4-hydroxy-3-[(4-phenyl-4H-1,2,4-triazol-3-yl)thio]-5,6-dihydro-2H-pyran-2-one] is 130 nM.
Same read-out and setting: the figure for `O=C1CC(=O)OC(CCc2ccc(C(=O)C3CC3)cc2)(C2CCCC2)C1` (stereo not shown) [A(32), 6-Cyclopentyl-6-[2-(4-cyclopropanecarbonyl-phenyl)-ethyl]-dihydro-pyran-2,4-dione] is 5200 nM.
For `COc1ccc(CCC2(C3CCCC3)CC(O)=C(Sc3nnc(O)n3C(C)C)C(=O)O2)cc1Cl` (stereo not shown) [C(06), 6-[2-(3-Chloro-4-methoxy-phenyl)-ethyl]-6-cyclopentyl-4-hydroxy-3-(5-hydroxy-4-isopropyl-4H-[1,2,4]triazol-3-ylsulfanyl)-5,6-dihydro-pyran-2-one], the IC50 amounted to 250 nM.
